By Km is commonly meant the concentration of substrate that gives half-maximal velocity.

This is an account of results in patent publication US6451576B1, “Sesquiterpene synthases from grand fir (Abies grandis), and methods of use” (Washington State University Research Foundation, priority 1998, dated 2002).

One data set has as its system insect larvae. The settings on record: present in paper made from trees of the genus Abies; cited from earlier work.
The test system of data set [1] is partially purified inducible sesquiterpene synthases. The data set can be described thus: Sesquiterpene synthase assay with partially purified extract of wounded grand fir stems. It counts as biochemical, Abies grandis. The settings on record: partially purified inducible sesquiterpene synthases from wounded stems; read-out: Km value for [1-3H]farnesyl diphosphate. An excerpt:
Grand fir saplings in active growth were used as the enzyme source for determination of constitutive terpenoid synthases and of terpenoid synthases which had been induced in wounded stems by a standard wounding protocol (Funk, C., et al., (1994) Plant Physiol. 106, 999-1005). Stems from control saplings and saplings eight days after wounding (usually ten saplings) were harvested by removing the top and lateral growth, and cutting at about 5 cm from the base. The stems were chopped into 5-7 cm segments, frozen in liquid N2 and, following removal of any needles, were ground to a powder in a liquid N2-chilled No. 1 Wiley mill. The frozen powder was added to chilled extraction buffer (5 ml/g fresh tissue weight) consisting of 10 mM dibasic potassium phosphate and 1.8 mM monobasic potassium phosphate (pH 7.3), 140 mM NaCl, 20 mM β-mercaptoethanol, 10 mM MgCl2, 5 mM MnCl2, 10% (v/v) glycerol and 1% (w/v) each of polyvinylpyrrolidone (Mr 40,000) and polyvinylpolypyrrolidone. […]
Liquid scintillation counting was performed in 10 ml toluene:ethanol (7:3, v/v) containing 0.4% (w/v) Omnifluor (DuPont-NEN) at a ^3H counting efficiency of 43%. Protein concentrations were determined by the method of Bradford (Bradford, M. M. (1976) Anal. Biochem. 72, 248-254) using the Bio-Rad reagent and bovine serum albumin as standard. […]

Substrate in data set [2]: CC(C)=CCC/C(C)=C/CC/C(C)=C/CO[P@@](=O)(O)OP(=O)(O)O
The data set can be described thus: Kinetic parameters, metal ion requirement and substrate specificity of recombinant δ-selinene synthase. In kind it is biochemical, Abies grandis. The settings on record: other: δ-selinene synthase; estimated; 31.0 °C. As to the method:
The assay for recombinant sesquiterpene synthase (cyclase) activity was performed in 1 ml of buffer (extraction buffer without MnCl2 or the polymeric adsorbents) containing 3.5 μM [1-^3H]farnesyl diphosphate and the total protein extracted from a 5 ml bacterial culture to produce 10^5-10^6 dpm of product in 2 h at 31° C. The incubation mixture was overlaid with 1 ml pentane to trap volatile products. After incubation, the reaction mixture was extracted with pentane (3×1 ml) and the combined extract was passed through a MgSO4-silica gel column to provide the terpene hydrocarbon fractions as before. The columns were subsequently eluted with 3×1 ml of ether to collect any oxygenated products, and an aliquot of each fraction was taken for liquid scintillation counting to determine conversion rate. […]
Substrate specificity of δ-selinene synthase (SEQ ID No:20) and γ-humulene synthase (SEQ ID No:24) was evaluated by comparing farnesyl diphosphate (C15) to geranyl diphosphate (C10) and geranylgeranyl diphosphate (C20) at saturation as precursors of the respective terpene olefins. […] The identities of the monoterpene products produced by the sesquiterpene synthases were determined by GLC-MS and are set forth in FIG. 4.

Turning to `COC(=O)C1=CC[C@H]([C@H](C)CC(=O)CC(C)C)CC1` [Juvabione], the “effect on maturation of insect larvae” value in the data set with insect larvae is reported as “inhibits maturation of insect larvae”. Regarding `CC(C)=CCC/C(C)=C/CC/C(C)=C/CO[P@@](=O)(O)OP(=O)(O)O` [[1-^3H]farnesyl diphosphate], the Km in data set [1] is approximately 400 nM.

B1: δ-selinene synthase (SEQ ID No:20) (Abies grandis) (protein)
chain: MAEISESSIPRRTGNHHGNVWDDDLIHSLNSPYGAPAYYELLQKLIQEIKHLLLTEMEMDDGDHDLIKRLQIVDTLECLGIDRHFEHEIQTAALDYVYRWWNEKGIGEGSRDSFSKDLNATALGFRALRLHRYNVSSGVLKNFKDENGKFFCNFTGEEGRGDKQVRSMLSLLRASEISFPGEKVMEEAKAFTREYLNQVLAGHGDVTDVDQSLLREVKYALEFPWHCSVPRWEARSFLEIYGHNHSWLKSNINQKMLKLAKLDFNILQCKHHKEIQFITRWWRDSGISQLNFYRKRHVEYYSWVVMCIFEPEFSESRIAFAKTAILCTVLDDLYDTHATLHEIKIMTEGVRRWDLSLTDDLPDYIKIAFQFFFNTVNELIVEIVKRQGRDMTTIVKDCWKRYIESYLQEAEWIATGHIPTFNEYIKNGMASSGMCILNLNPLLLLDKLLPDNILEQIHSPSKILDLLELTGRIADDLKDFEDEKERGEMASSLQCYMKENPESTVENALNHIKGILNRSLEEFNWEFMKQDSVPMCCKKFTFNIGRGLQFIYKYRDGLYISDKEVKDQIFKILVHQVPMEE
notes: made in house; host or cells: E. coli XL1-Blue/pGAG4 or E. coli BL21(DE3)/pSBAG4
On to B1, for which, in data set [2], the Km is 1.5 µM.
